Experimental data published in EP3154958B1, “PHOSPHATIDYLINOSITOL 3-KINASE INHIBITORS” (Gilead Sciences, Inc., priority 2014, dated 2015).

Assays:
Assay type in all cases: biochemical
PI3Kδ = biological target: T1, PI3Kδ (Homo sapiens, UniProt O00329); assay: TR-FRET enzymatic activity assay, PI3Kδ; settings: recombinant heterodimeric PI3Kδ 25-50 pM, 2× Km ATP, 30 minutes at 25°C
T1 construct: made in house
Method in brief: (§1)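 Each PI3K isoform is tested in an enzymatic format. Signal comes from time-resolved fluorescence energy transfer.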

PI3Kβ = biological target: T2, PI3Kβ (Homo sapiens, UniProt P42338); assay: TR-FRET enzymatic activity assay, PI3Kβ; settings: recombinant heterodimeric PI3Kβ 25-50 pM, 2× Km ATP, 30 minutes at 25°C
T2 construct: made in house
Method in brief: as §1

PI3Kγ = biological target: T3, PI3Kγ (Homo sapiens, UniProt P48736); assay: TR-FRET enzymatic activity assay, PI3Kγ; settings: recombinant heterodimeric PI3Kγ 2 nM, 2× Km ATP, 30 minutes at 25°C
T3 construct: made in house
Method in brief: as §1

T3 sequence (P48736 whole entry): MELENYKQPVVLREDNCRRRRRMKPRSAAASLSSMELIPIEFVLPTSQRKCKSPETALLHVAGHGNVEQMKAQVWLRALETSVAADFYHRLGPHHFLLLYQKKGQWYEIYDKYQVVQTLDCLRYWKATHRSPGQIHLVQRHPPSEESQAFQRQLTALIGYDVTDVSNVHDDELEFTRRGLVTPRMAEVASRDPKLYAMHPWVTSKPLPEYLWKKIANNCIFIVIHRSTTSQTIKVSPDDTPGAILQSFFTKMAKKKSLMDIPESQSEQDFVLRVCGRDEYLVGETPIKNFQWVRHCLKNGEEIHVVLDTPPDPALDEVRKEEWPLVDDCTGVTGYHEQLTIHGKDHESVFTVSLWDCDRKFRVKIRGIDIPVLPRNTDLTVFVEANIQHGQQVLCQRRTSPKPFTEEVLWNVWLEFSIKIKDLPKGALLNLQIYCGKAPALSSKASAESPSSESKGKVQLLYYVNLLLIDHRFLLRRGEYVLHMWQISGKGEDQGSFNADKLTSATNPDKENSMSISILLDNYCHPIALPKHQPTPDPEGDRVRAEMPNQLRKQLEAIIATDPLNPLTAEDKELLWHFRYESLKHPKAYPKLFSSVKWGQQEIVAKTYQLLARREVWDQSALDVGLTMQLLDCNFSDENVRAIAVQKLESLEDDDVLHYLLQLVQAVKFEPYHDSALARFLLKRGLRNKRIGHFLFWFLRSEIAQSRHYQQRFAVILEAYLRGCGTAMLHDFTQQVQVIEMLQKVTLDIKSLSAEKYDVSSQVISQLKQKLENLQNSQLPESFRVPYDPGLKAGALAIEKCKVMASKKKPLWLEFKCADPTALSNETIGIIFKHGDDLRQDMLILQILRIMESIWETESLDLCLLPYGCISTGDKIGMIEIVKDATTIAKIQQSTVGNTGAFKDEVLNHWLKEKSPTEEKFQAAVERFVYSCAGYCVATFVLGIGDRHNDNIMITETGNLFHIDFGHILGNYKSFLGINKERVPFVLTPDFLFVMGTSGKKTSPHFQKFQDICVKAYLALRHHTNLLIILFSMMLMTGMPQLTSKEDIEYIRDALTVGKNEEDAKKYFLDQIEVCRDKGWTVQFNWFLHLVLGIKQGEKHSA
T3 sequence (Q8WYR1 whole entry partner): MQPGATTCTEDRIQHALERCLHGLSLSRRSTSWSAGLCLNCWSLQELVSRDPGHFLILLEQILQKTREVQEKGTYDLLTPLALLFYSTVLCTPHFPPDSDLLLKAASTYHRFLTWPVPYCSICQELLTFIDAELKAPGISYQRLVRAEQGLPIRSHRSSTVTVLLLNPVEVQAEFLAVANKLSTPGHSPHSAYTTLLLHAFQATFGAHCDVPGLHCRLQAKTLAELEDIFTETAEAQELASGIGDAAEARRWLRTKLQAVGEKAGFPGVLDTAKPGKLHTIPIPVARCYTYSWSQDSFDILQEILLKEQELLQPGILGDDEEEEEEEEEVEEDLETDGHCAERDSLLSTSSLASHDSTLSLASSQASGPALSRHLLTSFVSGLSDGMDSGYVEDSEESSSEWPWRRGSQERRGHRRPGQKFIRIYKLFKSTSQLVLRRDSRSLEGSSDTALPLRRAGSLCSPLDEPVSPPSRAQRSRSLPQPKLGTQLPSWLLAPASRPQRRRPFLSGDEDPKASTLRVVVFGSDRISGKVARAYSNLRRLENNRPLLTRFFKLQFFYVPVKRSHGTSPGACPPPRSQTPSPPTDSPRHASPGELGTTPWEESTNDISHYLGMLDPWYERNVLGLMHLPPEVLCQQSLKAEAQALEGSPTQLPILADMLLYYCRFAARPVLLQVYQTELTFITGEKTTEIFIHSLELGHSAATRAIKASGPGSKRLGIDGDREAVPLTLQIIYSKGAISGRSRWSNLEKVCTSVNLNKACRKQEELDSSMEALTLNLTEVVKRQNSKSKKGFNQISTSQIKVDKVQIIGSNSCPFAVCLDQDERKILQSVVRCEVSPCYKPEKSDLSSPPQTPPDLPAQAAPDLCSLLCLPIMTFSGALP
T1 sequence (O00329 whole entry): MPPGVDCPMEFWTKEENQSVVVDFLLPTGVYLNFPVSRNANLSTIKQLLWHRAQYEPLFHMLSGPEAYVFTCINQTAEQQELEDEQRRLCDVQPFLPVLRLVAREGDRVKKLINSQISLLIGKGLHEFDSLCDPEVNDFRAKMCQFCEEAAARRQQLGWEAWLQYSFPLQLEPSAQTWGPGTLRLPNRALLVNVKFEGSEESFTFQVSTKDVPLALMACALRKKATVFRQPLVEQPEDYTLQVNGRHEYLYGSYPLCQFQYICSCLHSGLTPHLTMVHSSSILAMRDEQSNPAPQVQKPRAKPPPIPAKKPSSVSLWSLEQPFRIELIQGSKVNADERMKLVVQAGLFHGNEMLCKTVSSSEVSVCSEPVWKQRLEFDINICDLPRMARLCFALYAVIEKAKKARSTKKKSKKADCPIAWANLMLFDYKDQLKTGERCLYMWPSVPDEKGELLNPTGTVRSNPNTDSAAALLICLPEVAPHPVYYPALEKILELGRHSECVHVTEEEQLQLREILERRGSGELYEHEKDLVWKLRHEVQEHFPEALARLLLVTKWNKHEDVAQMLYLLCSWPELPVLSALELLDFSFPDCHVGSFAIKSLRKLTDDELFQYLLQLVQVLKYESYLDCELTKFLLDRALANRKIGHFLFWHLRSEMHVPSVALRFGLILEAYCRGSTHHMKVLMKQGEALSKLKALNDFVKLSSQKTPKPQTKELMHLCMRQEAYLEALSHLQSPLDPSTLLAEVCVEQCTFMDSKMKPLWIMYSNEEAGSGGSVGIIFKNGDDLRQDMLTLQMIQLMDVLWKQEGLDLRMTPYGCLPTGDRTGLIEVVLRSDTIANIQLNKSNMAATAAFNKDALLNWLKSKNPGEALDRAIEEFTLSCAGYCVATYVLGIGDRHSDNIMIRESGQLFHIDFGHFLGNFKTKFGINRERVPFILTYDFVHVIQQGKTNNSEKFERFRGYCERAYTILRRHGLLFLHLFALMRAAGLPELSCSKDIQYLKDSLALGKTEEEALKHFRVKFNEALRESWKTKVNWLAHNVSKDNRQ
T1 sequence (P27986 whole entry partner): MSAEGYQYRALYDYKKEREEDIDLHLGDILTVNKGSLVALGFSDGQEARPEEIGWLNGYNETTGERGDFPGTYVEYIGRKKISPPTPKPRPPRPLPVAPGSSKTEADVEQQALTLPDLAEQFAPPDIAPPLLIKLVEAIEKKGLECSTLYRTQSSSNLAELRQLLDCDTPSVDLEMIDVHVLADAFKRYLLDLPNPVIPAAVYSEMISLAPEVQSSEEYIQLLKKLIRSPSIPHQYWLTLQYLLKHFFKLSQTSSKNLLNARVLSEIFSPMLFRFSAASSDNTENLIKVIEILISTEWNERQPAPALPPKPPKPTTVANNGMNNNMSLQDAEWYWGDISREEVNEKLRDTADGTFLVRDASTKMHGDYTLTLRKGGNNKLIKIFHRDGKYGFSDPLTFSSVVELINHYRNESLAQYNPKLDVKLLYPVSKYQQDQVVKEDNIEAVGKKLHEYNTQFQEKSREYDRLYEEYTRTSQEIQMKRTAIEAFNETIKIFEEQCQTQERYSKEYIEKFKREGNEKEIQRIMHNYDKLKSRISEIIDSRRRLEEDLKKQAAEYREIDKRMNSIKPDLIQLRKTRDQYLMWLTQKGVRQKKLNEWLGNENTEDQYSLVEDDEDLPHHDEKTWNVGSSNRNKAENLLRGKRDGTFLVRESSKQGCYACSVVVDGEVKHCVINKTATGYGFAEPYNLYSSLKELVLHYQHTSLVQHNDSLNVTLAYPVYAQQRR
T2 sequence (P42338 whole entry): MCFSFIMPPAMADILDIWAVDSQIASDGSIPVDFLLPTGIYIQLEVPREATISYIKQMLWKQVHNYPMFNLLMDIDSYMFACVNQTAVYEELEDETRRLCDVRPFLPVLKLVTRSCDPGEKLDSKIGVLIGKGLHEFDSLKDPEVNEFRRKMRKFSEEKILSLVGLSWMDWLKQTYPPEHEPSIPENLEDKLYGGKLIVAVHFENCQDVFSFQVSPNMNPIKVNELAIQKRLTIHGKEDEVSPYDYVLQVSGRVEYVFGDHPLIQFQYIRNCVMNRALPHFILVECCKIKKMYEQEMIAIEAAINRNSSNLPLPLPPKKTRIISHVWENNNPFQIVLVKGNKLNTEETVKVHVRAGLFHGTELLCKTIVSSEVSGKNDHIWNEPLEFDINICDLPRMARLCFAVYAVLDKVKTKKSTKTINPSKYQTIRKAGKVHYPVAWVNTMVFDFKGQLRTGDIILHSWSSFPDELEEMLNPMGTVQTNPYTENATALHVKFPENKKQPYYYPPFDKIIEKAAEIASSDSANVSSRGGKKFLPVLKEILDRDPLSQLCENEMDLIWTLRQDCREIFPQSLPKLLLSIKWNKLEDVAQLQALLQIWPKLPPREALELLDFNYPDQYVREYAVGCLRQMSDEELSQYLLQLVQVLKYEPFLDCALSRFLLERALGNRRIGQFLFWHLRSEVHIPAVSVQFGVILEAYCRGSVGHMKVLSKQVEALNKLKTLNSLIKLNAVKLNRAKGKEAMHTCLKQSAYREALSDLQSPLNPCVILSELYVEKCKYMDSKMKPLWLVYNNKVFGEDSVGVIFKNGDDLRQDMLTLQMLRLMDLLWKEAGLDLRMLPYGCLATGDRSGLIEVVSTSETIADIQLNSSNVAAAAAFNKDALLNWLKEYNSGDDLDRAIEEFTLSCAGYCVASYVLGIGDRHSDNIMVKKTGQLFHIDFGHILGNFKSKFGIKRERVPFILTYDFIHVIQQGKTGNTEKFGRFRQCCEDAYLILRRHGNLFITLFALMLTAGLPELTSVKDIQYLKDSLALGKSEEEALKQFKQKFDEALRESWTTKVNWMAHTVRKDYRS
T2 sequence (P27986 whole entry partner): as the sequence (P27986 whole entry partner) above

Row | Compound | IC50 (PI3Kδ) | IC50 (PI3Kβ) | IC50 (PI3Kγ)
1 | C[C@H](Nc1ncnc(N)c1C#N)c1nc2cccc(Cl)c2c(=O)n1N1CCNC(C(F)(F)F)C1 (stereo partly drawn) [Compound 62, 4-amino-6-(((1S)-1-(5-chloro-4-oxo-3-(3-(trifluoromethyl)piperazin-1-yl)-3,4-dihydroquinazolin-2-yl)ethyl)amino)pyrimidine-5-carbonitrile] | 9 nM | 820 nM | 8400 nM
2 | C[C@H](Nc1ncnn2ccnc12)c1nc2cccc(Cl)c2c(=O)n1N1CCCNCC1 [Compound 64, (S)-5-chloro-3-(1,4-diazepan-1-yl)-2-(1-(imidazo[2,1-f][1,2,4]triazin-4-ylamino)ethyl)quinazolin-4(3H)-one] | 9 nM | 94 nM | > 10000 nM
3 | C[C@H](Nc1ncnn2ccnc12)c1nc2cccc(Cl)c2c(=O)n1N1CCNCC1 [Compound 65, (S)-5-chloro-2-(1-(imidazo[2,1-f][1,2,4]triazin-4-ylamino)ethyl)-3-(piperazin-1-yl)quinazolin-4(3H)-one] | 8 nM | 42 nM | > 10000 nM
4 | C[C@H](Nc1ncnc(N)c1C#N)c1nc2cccc(Cl)c2c(=O)n1N1CCCNCC1 [Compound 66, (S)-4-amino-6-((1-(5-chloro-3-(1,4-diazepan-1-yl)-4-oxo-3,4-dihydroquinazolin-2-yl)ethyl)amino)pyrimidine-5-carbonitrile] | 13 nM | 370 nM | > 10000 nM
5 | C[C@H](Nc1nc(N)nc(N)c1Cl)c1nc2cccc(Cl)c2c(=O)n1N1CCNCC1 [Compound 72, (S)-5-chloro-2-(1-((2,6-diamino-5-chloropyrimidin-4-yl)amino)ethyl)-3-(piperazin-1-yl)quinazolin-4(3H)-one] | 11 nM | 28 nM | > 10000 nM
6 | C[C@H](Nc1ncnc2cccnc12)c1nc2cccc(Cl)c2c(=O)n1N1CCNCC1 [Compound 73, (S)-5-chloro-3-(piperazin-1-yl)-2-(1-(pyrido[3,2-d]pyrimidin-4-ylamino)ethyl)quinazolin-4(3H)-one] | 8 nM | 19 nM | > 10000 nM
7 | CC(C)C[C@H](Nc1ncnc(N)c1C#N)c1nc2cccc(Cl)c2c(=O)n1N1CCNCC1 [Compound 74, (S)-4-amino-6-((1-(5-chloro-4-oxo-3-(piperazin-1-yl)-3,4-dihydroquinazolin-2-yl)-3-methylbutyl)amino)pyrimidine-5-carbonitrile] | 32 nM | 570 nM | > 10000 nM
8 | CC(C)C[C@H](Nc1nc(N)nc(N)c1C#N)c1nc2cccc(Cl)c2c(=O)n1N1CCNCC1 [Compound 75, (S)-2,4-diamino-6-((1-(5-chloro-4-oxo-3-(piperazin-1-yl)-3,4-dihydroquinazolin-2-yl)-3-methylbutyl)amino)pyrimidine-5-carbonitrile] | 15 nM | 37 nM | > 10000 nM
9 | C[C@H](Nc1ncnc2cccnc12)c1nc2cccc(Cl)c2c(=O)n1C1CCCNCC1 (stereo partly drawn) [Compound 81, 3-(azepan-4-yl)-5-chloro-2-((S)-1-(pyrido[3,2-d]pyrimidin-4-ylamino)ethyl)quinazolin-4(3H)-one] | 35 nM | 520 nM | > 10000 nM
10 | C[C@H](Nc1ncnn2ccnc12)c1nc2cccc(Cl)c2c(=O)n1C1CCCNCC1 (stereo partly drawn) [Compound 82, 3-(azepan-4-yl)-5-chloro-2-((S)-1-(imidazo[2,1-f][1,2,4]triazin-4-ylamino)ethyl)quinazolin-4(3H)-one] | 22 nM | 480 nM | > 10000 nM
11 | C[C@H](Nc1ncnc(N)c1C#N)c1nc2cccc(Cl)c2c(=O)n1C1CCCNC1 (stereo partly drawn) [Compound 83, 4-amino-6-(((1S)-1-(5-chloro-4-oxo-3-(piperidin-3-yl)-3,4-dihydroquinazolin-2-yl)ethyl)amino)pyrimidine-5-carbonitrile] | 8 nM | 270 nM | > 10000 nM

Stronger by IC50 (PI3Kδ), values ahead:

Row | IC50 (PI3Kδ) | IC50 (PI3Kβ) | IC50 (PI3Kγ) | Compound
12 | 7 nM | 78 nM | > 10000 nM | CC[C@H](Nc1ncnc(N)c1C#N)c1nc2cccc(Cl)c2c(=O)n1N1CCNCC1 [Compound 79, (S)-4-amino-6-((1-(5-chloro-4-oxo-3-(piperazin-1-yl)-3,4-dihydroquinazolin-2-yl)propyl)amino)pyrimidine-5-carbonitrile]
13 | 7 nM | 160 nM | > 10000 nM | C[C@H](Nc1ncnc(N)c1C#N)c1nc2cccc(Cl)c2c(=O)n1C1CCNC1 (stereo partly drawn) [Compound 85, 4-amino-6-(((1S)-1-(5-chloro-4-oxo-3-(pyrrolidin-3-yl)-3,4-dihydroquinazolin-2-yl)ethyl)amino)pyrimidine-5-carbonitrile]
14 | 5 nM | 130 nM | > 10000 nM | Cc1cccc2nc([C@H](C)Nc3ncnc(N)c3C#N)n(C3CCNCC3)c(=O)c12 [Compound 60, (S)-4-amino-6-((1-(5-methyl-4-oxo-3-(piperidin-4-yl)-3,4-dihydroquinazolin-2-yl)ethyl)amino)pyrimidine-5-carbonitrile]
15 | 4 nM | 25 nM | > 10000 nM | CC[C@H](Nc1ncnc2scnc12)c1nc2cccc(Cl)c2c(=O)n1N1CCNCC1 [Compound 80, (S)-5-chloro-3-(piperazin-1-yl)-2-(1-(thiazolo[5,4-d]pyrimidin-7-ylamino)propyl)quinazolin-4(3H)-one]
16 | 3 nM | 1 nM | 2100 nM | CC[C@H](Nc1nc(N)nc(N)c1C#N)c1nc2cccc(Cl)c2c(=O)n1N1CCNCC1 [Compound 68, (S)-2,4-diamino-6-((1-(5-chloro-4-oxo-3-(piperazin-1-yl)-3,4-dihydroquinazolin-2-yl)propyl)amino)pyrimidine-5-carbonitrile]
17 | 3 nM | 14 nM | > 10000 nM | C[C@H](Nc1ncnc2scnc12)c1nc2cccc(Cl)c2c(=O)n1N1CCNCC1 [Compound 70, (S)-5-chloro-3-(piperazin-1-yl)-2-(1-(thiazolo[5,4-d]pyrimidin-7-ylamino)ethyl)quinazolin-4(3H)-one]
18 | 3 nM | 83 nM | > 10000 nM | C[C@H](Nc1ncnc(N)c1C#N)c1nc2cccc(Cl)c2c(=O)n1C1CCNCC1 [Compound 86, (S)-4-amino-6-((1-(5-chloro-4-oxo-3-(piperidin-4-yl)-3,4-dihydroquinazolin-2-yl)ethyl)amino)pyrimidine-5-carbonitrile]
19 | 2 nM | 5 nM | > 10000 nM | C[C@H](Nc1ncnc(N)c1C#N)c1nc2cccc(Cl)c2c(=O)n1N1CCNC2(CC2)C1 [Compound 63, (S)-4-amino-6-((1-(5-chloro-4-oxo-3-(4,7-diazaspiro[2.5]octan-7-yl)-3,4-dihydroquinazolin-2-yl)ethyl)amino)pyrimidine-5-carbonitrile]
20 | 2 nM | 22 nM | > 10000 nM | C[C@H](Nc1ncnc(N)c1C#N)c1nc2cccc(Cl)c2c(=O)n1N1CCCNCC1 [Compound 67, (S)-4-amino-6-((1-(5-chloro-3-(1,4-diazepan-1-yl)-4-oxo-3,4-dihydroquinazolin-2-yl)ethyl)amino)pyrimidine-5-carbonitrile]
21 | 2 nM | 3 nM | 3200 nM | C[C@H](Nc1ncnc2ccc(Cl)nc12)c1nc2cccc(Cl)c2c(=O)n1N1CCNCC1 [Compound 71, (S)-5-chloro-2-(1-((6-chloropyrido[3,2-d]pyrimidin-4-yl)amino)ethyl)-3-(piperazin-1-yl)quinazolin-4(3H)-one]
22 | 2 nM | 25 nM | > 10000 nM | C[C@H](Nc1ncnc(N)c1C#N)c1nc2c(Cl)ccc(Cl)c2c(=O)n1N1CCNCC1 [Compound 76, (S)-4-amino-6-((1-(5,8-dichloro-4-oxo-3-(piperazin-1-yl)-3,4-dihydroquinazolin-2-yl)ethyl)amino)pyrimidine-5-carbonitrile]
23 | 2 nM | 18 nM | > 10000 nM | O=c1c2c(Cl)cccc2nc([C@@H](Nc2ncnc3scnc23)C2CC2)n1N1CCNCC1 [Compound 78, (S)-5-chloro-2-(cyclopropyl(thiazolo[5,4-d]pyrimidin-7-ylamino)methyl)-3-(piperazin-1-yl)quinazolin-4(3H)-one]
24 | 2 nM | 32 nM | > 10000 nM | C[C@H](Nc1ncnc(N)c1C#N)c1nc2cccc(Cl)c2c(=O)n1C1CCCNCC1 (stereo partly drawn) [Compound 84, 4-amino-6-(((1S)-1-(3-(azepan-4-yl)-5-chloro-4-oxo-3,4-dihydroquinazolin-2-yl)ethyl)amino)pyrimidine-5-carbonitrile]
25 | 1 nM | 3 nM | 7400 nM | C[C@H](Nc1ncnc2[nH]cc(Br)c12)c1nc2cccc(Cl)c2c(=O)n1N1CCNCC1 [Compound 69, (S)-2-(1-((5-bromo-7H-pyrrolo[2,3-d]pyrimidin-4-yl)amino)ethyl)-5-chloro-3-(piperazin-1-yl)quinazolin-4(3H)-one]
26 | 1 nM | 1 nM | 2900 nM | N#Cc1c(N)nc(N)nc1N[C@H](c1nc2cccc(Cl)c2c(=O)n1N1CCNCC1)C1CC1 [Compound 77, (S)-2,4-diamino-6-(((5-chloro-4-oxo-3-(piperazin-1-yl)-3,4-dihydroquinazolin-2-yl)(cyclopropyl)methyl)amino)pyrimidine-5-carbonitrile]
27 | 0.9 nM | 150 nM | 400 nM | C[C@H](Nc1nc(N)nc(N)c1C#N)c1nc2cccc(Cl)c2c(=O)n1N1CCNC(C(F)(F)F)C1 (stereo partly drawn) [Compound 61, 2,4-diamino-6-(((1S)-1-(5-chloro-4-oxo-3-(3-(trifluoromethyl)piperazin-1-yl)-3,4-dihydroquinazolin-2-yl)ethyl)amino)pyrimidine-5-carbonitrile]
